Experimental data published in patent publication US12109231B2 (Neuvivo, Inc., priority 2015, dated 2024).
Where two headings read alike, the source gives them in different places.

Tests used:
[1] = tested on: markers of inflammation; conditions: ALS patients, after a single dose
[2] = tested on: monocyte/macrophage activation; conditions: in vivo
[3] = tested on: monocyte/macrophage activation; conditions: in vitro
[4] = tested on: patient with autism
Description: (§1) Plasma/serum samples are obtained and submitted to a lab-based immunoassay to quantify inflammatory markers in the plasma/serum sample. Inflammatory markers are compared to the patient's pre-treatment levels of plasma/serum inflammatory markers.

[5] = tested on: patient with depression
Description: as §1

[6] = tested on: patient with posttraumatic stress disorder
Description: as §1

[7] = tested on: patient with schizophrenia
Description: as §1

[8] = tested on: patient with bipolar disorder
Description: as §1

[9] = tested on: monocyte CD16
[10] = tested on: G93A SOD-1 mt. mouse model of ALS; conditions: SOD-1 mutant mice, 2 mg/kg intravenously every three weeks
Protocol: Chlorite composition administration and survival studies have been done in G93A SOD-1 mt. mouse model of ALS. In this model, the SOD-1 mutant mice begin developing degeneration of neurologic function starting at approximately 70 days of age. The mice were dosed with chlorite composition at 2 mg/kg intravenously every three weeks with neuroscore and survival information being collected weekly.

[11] = tested on: IL-18; conditions: Phase 2, responders with elevated IL-18 at baseline
Description: (§2) These clinical data provided compelling rationale to test […] in pre-clinical models of Parkinson's disease to investigate its brain penetrance, ability to modulate microglia activation and peripheral immune cell infiltration to the CNS, and protect vulnerable neuronal populations from synuclein-induced degeneration.

[12] = tested on: ALS patients
Description: as §2

[13] = tested on: LPS; conditions: Phase 2, responders positive for LPS at baseline
Description: as §2

## sodium chlorite
[1]
  markers of inflammation: decrease markers of inflammation
[2]
  markers of monocyte/macrophage activation: reversed
[3]
  markers of monocyte/macrophage activation: reversed
[4]; after weekly injection
  behavioral and/or neurophysical symptoms of autism: found to be reduced
[4]; autism, vs pre-treatment levels
  levels of plasma/serum inflammatory markers after treatment: reduced
[5]; after weekly injection
  behavioral and/or neurophysical symptoms of depression: found to be reduced
[5]; depression, vs pre-treatment levels
  levels of plasma/serum inflammatory markers after treatment: reduced
[6]; after weekly injection
  behavioral and/or neurophysical symptoms of posttraumatic stress disorder: found to be reduced
[6]; posttraumatic stress disorder, vs pre-treatment levels
  levels of plasma/serum inflammatory markers after treatment: reduced
[7]; after weekly injection
  behavioral and/or neurophysical symptoms of schizophrenia: found to be reduced
[7]; schizophrenia, vs pre-treatment levels
  levels of plasma/serum inflammatory markers after treatment: reduced
[8]; after weekly injection
  behavioral and/or neurophysical symptoms of bipolar disorder: found to be reduced
[8]; bipolar disorder, vs pre-treatment levels
  levels of plasma/serum inflammatory markers after treatment: reduced
[9]; 24 hours after one dose, compared with baseline pretreatment levels
  reduction of the difference between ALS and normal control level of monocyte CD16 expression toward the normal value: approximately 50%
[9]; chlorite treated patients compared to placebo
  level of CD16 expression on the CD16 bright subset of monocytes: Dose-dependent changes
[10]
  survival compared with sham treated animals: almost three weeks longer
[10]; vs sham
  neurologic degeneration (neuroscore): delayed by a similar time
[11]
  IL-18 in responders following treatment: decreased following treatment
[12]; Phase 2
  symptom progression in a subset of patients: may have dose-dependently halted symptom progression
[12]; Phase 2, 2 mg/kg, patients above the median wr-CRP, six months of study
  slower rate of progression than placebo patients: 44%
[12]; Phase 2, baseline wr-CRP above 1125 ng/ml
  dose dependence of disease progression in patients with above the median wr-CRP value: dose dependent slowing of disease progression
[12]; Phase 2, high dose (2 mg/kg), six months of treatment
  patients who did not progress / stopped progressing: 25%
[12]; Phase 2, high dose, six months of treatment
  number of non-progressing patients relative to placebo: More than 2 times
[12]; Phase 2, high-dose group
  progression in patients with greater inflammation (higher CRP): slowing of progression was observed
[13]
  LPS in responders following treatment: decreased following treatment
